Test results taken from ChEMBL document CHEMBL1649541, “Molecular basis and phenotype of methicillin resistance in Staphylococcus aureus and insights into new beta-lactams that meet the challenge” (Antimicrob Agents Chemother, 2009).
In brackets after ≈: the same amount, converted by molar mass. Each block holds one compound with its values, some of them ahead of it.

Experiments:
[1] = biological target: T1, MecA (Staphylococcus aureus, UniProt Q7DHH4); test: Binding affinity to methicillin-resistant Staphylococcus aureus MF535HR PBP 2a by competitive binding assay
T1 sequence (Q7DHH4 whole entry): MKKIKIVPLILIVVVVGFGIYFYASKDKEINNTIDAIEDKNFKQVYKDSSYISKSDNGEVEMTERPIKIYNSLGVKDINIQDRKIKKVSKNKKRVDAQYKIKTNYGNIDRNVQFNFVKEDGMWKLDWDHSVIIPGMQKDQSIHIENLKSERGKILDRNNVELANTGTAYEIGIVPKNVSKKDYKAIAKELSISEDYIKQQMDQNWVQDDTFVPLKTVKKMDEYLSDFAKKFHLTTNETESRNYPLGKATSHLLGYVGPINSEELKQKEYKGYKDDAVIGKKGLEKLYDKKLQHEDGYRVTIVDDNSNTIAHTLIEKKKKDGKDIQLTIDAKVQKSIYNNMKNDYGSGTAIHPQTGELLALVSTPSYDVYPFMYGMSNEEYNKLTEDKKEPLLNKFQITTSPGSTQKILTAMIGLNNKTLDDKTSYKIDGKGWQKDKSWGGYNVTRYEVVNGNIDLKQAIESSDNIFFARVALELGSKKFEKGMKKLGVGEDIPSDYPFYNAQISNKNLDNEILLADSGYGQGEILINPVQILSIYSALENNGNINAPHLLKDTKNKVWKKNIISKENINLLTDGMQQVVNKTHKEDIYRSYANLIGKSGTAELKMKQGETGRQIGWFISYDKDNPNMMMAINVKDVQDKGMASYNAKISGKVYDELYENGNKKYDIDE

[2] = biological target: T2, Penicillin-binding protein 1 (Staphylococcus aureus, UniProt Q53725); test: Binding affinity to methicillin-susceptible Staphylococcus aureus PBP 1
T2 sequence (Q53725 whole entry): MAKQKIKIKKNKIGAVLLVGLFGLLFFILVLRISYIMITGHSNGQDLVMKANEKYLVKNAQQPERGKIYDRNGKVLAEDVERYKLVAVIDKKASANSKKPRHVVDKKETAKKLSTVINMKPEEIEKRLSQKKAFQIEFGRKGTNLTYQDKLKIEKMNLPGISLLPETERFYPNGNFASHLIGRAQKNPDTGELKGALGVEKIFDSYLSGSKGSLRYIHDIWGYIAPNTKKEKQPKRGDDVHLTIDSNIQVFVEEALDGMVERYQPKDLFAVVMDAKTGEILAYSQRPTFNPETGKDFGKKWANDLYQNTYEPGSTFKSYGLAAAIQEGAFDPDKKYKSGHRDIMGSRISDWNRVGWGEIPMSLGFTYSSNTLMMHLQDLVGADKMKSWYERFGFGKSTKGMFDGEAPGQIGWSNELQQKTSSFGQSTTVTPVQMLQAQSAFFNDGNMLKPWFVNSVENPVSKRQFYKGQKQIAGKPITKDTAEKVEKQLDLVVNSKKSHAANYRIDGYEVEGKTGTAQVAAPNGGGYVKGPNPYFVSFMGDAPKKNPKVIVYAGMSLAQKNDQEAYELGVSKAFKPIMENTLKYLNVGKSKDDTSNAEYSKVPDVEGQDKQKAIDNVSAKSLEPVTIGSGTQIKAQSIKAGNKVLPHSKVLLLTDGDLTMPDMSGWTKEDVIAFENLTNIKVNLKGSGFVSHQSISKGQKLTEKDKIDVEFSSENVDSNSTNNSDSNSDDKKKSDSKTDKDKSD

[3] = tested on: Staphylococcus aureus; test: Antimicrobial activity against community-acquired Staphylococcus aureus; assay type: functional
[4] = tested on: Staphylococcus aureus; test: Antimicrobial activity against daptomycin-nonsusceptible Staphylococcus aureus; assay type: functional
[5] = tested on: Staphylococcus aureus; test: Antimicrobial activity against vancomycin-resistant Staphylococcus aureus; assay type: functional
[6] = biological target: T1, MecA; test: Inhibition of methicillin-resistant Staphylococcus aureus PBP 2a
[7] = biological target: T3, Penicillin-binding protein 2b (Staphylococcus aureus, UniProt Q9XDB3); test: Binding affinity to methicillin-susceptible Staphylococcus aureus PBP 3
T3 sequence (Q9XDB3 whole entry): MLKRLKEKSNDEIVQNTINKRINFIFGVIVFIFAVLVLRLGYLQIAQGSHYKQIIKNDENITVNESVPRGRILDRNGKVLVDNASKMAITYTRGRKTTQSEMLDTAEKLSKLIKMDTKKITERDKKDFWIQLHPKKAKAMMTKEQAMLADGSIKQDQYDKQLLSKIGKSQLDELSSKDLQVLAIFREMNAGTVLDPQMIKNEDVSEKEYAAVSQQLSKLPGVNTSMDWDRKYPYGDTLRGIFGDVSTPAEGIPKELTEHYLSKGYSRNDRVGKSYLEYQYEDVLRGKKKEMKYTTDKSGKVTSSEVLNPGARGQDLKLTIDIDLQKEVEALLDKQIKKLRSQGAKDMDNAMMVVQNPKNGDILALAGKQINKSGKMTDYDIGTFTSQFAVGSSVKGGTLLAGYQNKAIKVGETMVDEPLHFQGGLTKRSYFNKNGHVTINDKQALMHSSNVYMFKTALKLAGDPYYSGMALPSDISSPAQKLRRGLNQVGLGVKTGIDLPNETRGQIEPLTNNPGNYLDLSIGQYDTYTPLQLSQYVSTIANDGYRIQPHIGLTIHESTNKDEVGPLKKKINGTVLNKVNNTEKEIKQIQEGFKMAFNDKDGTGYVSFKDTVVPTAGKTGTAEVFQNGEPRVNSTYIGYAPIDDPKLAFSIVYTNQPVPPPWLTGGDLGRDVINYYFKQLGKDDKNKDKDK

[8] = biological target: T4, Penicillin-binding protein 4 (Staphylococcus aureus, UniProt P72355); test: Binding affinity to methicillin-susceptible Staphylococcus aureus PBP 4
T4 sequence (P72355 whole entry): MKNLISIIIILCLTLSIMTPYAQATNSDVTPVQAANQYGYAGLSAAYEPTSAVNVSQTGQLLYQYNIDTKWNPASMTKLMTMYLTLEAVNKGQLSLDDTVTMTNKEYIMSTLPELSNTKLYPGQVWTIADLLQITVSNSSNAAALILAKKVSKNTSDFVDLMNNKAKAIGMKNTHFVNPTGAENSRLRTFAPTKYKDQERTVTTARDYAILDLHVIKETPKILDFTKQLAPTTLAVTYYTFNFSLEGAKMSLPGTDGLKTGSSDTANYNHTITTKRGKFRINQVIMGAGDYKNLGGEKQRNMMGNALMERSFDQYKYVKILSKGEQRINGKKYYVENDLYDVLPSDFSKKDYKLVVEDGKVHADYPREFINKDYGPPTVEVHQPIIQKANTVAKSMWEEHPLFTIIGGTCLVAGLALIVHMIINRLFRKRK

[9] = tested on: Staphylococcus aureus; test: Antimicrobial activity against vancomycin-intermediate Staphylococcus aureus; assay type: functional
[10] = tested on: Staphylococcus aureus; test: Antimicrobial activity against methicillin-resistant Staphylococcus aureus ATCC 29213 by CLSI method; assay type: functional
[11] = biological target: T5, Penicillin-binding protein 2 (Staphylococcus aureus, UniProt Q53729); test: Binding affinity to methicillin-susceptible Staphylococcus aureus PBP 2
T5 sequence (Q53729 whole entry): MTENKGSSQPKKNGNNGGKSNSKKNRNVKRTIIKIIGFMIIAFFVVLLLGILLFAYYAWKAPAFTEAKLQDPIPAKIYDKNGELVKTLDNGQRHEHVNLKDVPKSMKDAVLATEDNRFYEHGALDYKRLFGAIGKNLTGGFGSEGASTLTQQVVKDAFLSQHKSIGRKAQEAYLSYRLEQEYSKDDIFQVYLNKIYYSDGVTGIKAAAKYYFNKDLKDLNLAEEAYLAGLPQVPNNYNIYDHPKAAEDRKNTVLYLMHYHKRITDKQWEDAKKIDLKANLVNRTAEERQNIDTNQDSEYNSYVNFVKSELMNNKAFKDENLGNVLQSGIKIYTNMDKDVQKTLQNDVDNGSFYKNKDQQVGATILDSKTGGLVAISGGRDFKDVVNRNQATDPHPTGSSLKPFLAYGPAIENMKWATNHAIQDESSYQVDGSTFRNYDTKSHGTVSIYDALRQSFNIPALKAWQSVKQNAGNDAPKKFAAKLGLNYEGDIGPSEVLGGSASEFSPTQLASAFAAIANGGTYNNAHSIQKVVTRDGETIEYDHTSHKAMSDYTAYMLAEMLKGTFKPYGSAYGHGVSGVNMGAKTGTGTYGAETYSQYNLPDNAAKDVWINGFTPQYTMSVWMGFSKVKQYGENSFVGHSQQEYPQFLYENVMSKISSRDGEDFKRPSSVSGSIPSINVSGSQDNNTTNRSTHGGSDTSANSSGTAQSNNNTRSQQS

[12] = tested on: Staphylococcus aureus; test: Antimicrobial activity against methicillin-susceptible Staphylococcus aureus ATCC 29213 by M7-A7 dilution method; assay type: functional
[13] = biological target: T5, Penicillin-binding protein 2; test: Inhibition of methicillin-susceptible Staphylococcus aureus ATCC 29213 PBP 2
[14] = biological target: T4, Penicillin-binding protein 4; test: Inhibition of methicillin-susceptible Staphylococcus aureus ATCC 29213 PBP 4
[15] = biological target: T1, MecA; test: Inhibition of methicillin-resistant Staphylococcus aureus OC 3726 PBP 2a
[16] = biological target: T3, Penicillin-binding protein 2b; test: Inhibition of methicillin-susceptible Staphylococcus aureus ATCC 29213 PBP 3
[17] = tested on: Staphylococcus aureus; test: Antimicrobial activity against methicillin-resistant Staphylococcus aureus infected in patient with complicated skin and skin structure infection assessed as cure rate at 1 g/kg, iv administered every 12 hrs; assay type: functional
[18] = tested on: Staphylococcus aureus; test: Antimicrobial activity against methicillin-resistant Staphylococcus aureus infected in patient with complicated skin and skin structure infection assessed as cure rate at 500 mg/kg, iv administered every 12 hrs; assay type: functional
[19] = biological target: T2, Penicillin-binding protein 1; test: Inhibition of methicillin-susceptible Staphylococcus aureus ATCC 29213 PBP 1
[20] = tested on: Staphylococcus aureus; test: Antimicrobial activity against methicillin-resistant Staphylococcus aureus in mouse systemic infection model; assay type: functional
[21] = tested on: Staphylococcus aureus; test: Bactericidal activity against methicillin-resistant Staphylococcus aureus; assay type: functional
[22] = tested on: Staphylococcus aureus; test: Antimicrobial activity against methicillin-resistant Staphylococcus aureus; assay type: functional
[23] = tested on: Staphylococcus aureus; test: Ratio of MBC to MIC for methicillin-resistant Staphylococcus aureus; assay type: functional

Structure (SMILES): C[C@@H](O)[C@H]1C(=O)N2C(C(=O)[O-])=C(c3cn4cnc(C(=O)c5ccc[n+](CC(N)=O)c5)c4s3)[C@H](C)[C@H]12
IC50 [1]: 262 nM

Structure (SMILES): CCO/N=C(\C(=O)N[C@@H]1C(=O)N2C(C(=O)[O-])=C(Sc3nc(-c4cc[n+](C)cc4)cs3)CS[C@H]12)c1nsc(NP(=O)(O)O)n1 [CEFTAROLINE FOSAMIL]
IC50 [2]: 146 nM
MIC90 [3]: 1 µg/mL (≈ 1.46 µM)
MIC [4]: 0.5 µg/mL (≈ 0.73 µM)
MIC [5]: 0.12 µg/mL (≈ 0.175 µM)
IC50 [6]: 234 nM
IC50 [7]: 71.6 nM
IC50 [8]: > 1460 nM
MIC90 [9]: 1 µg/mL (≈ 1.46 µM)
MIC [10]: 0.25 µg/mL (≈ 0.365 µM)
IC50 [11]: 49.7 nM

Structure (SMILES): CC(C)(O/N=C(\C(=O)N[C@@H]1C(=O)N2C(C(=O)[O-])=C(C[n+]3ccccc3)CS[C@H]12)c1csc(N)n1)C(=O)O [CEFTAZIDIME]
MIC [12]: > 128 µg/mL

Structure (SMILES): Cc1oc(=O)oc1COC(=O)N1CC[C@@H](N2CC/C(=C\C3=C(C(=O)O)N4C(=O)[C@@H](NC(=O)/C(=N/O)c5nsc(N)n5)[C@H]4SC3)C2=O)C1 [CEFTOBIPROLE MEDOCARIL FREE ACID]
IC50 [13]: 724 nM
IC50 [14]: 1450 nM
IC50 [15]: 1300 nM
IC50 [16]: 72.4 nM
Activity [17]: 90%
Activity [18]: 92%
IC50 [19]: 145 nM
MIC [12]: 2 µg/mL (≈ 2.9 µM)

MIC [12]: > 64 µg/mL
Structure (SMILES): CO/N=C(\C(=O)N[C@@H]1C(=O)N2C(C(=O)O)=C(CSc3nc(=O)c(O)nn3C)CS[C@H]12)c1csc(N)n1 [CEFTRIAXONE]

Structure (SMILES): CC(=O)NC[C@H]1CN(c2ccc(N3CCOCC3)c(F)c2)C(=O)O1 [LINEZOLID]
ED50 [20]: 7.4 mg/kg

Structure (SMILES): C[C@H]1C=C(c2csc(SC3=C(C(=O)O)N4C(=O)[C@H]([C@@H](C)O)[C@H]4[C@H]3C)n2)CN1 [RAZUPENEM]
MBC [21]: 0.5 µg/mL (≈ 1.23 µM)
ED50 [20]: 4.7 mg/kg
MIC90 [22]: 2 µg/mL (≈ 4.91 µM)
Ratio [23]: 1

Structure (SMILES): CN[C@H](CC(C)C)C(=O)N[C@H]1C(=O)N[C@@H](CC(N)=O)C(=O)N[C@H]2C(=O)N[C@H]3C(=O)N[C@H](C(=O)N[C@H](C(=O)O)c4cc(O)cc(O)c4-c4cc3ccc4O)[C@H](O)c3ccc(c(Cl)c3)Oc3cc2cc(c3O[C@@H]2O[C@H](CO)[C@@H](O)[C@H](O)[C@H]2O[C@H]2C[C@](C)(N)[C@H](O)[C@H](C)O2)Oc2ccc(cc2Cl)[C@H]1O [VANCOMYCIN]
ED50 [20]: 6 mg/kg
